The record followed here is US9284333B2, “Fused pyrroledicarboxamides and their use as pharmaceuticals” (SANOFI, priority 2012, dated 2016).

This test concerns the target Human TASK-1 channels (Homo sapiens (Human), UniProt O14649). In words: Determination of the activity on the TASK-1 channel in Xenopus oocytes (two-microelectrode voltage clamp). It is filed as cell-based. The following applies: human TASK-1 expressed in Xenopus oocytes, room temperature; read-out: IC50 value for TASK-1 inhibition. Put shortly:
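Current during 500 ms pulses to 40 mV from a −90 mV hold was recorded in oocytes expressing human TASK-1 for two days after cRNA injection. Compounds were added cumulatively to the ND96 bath (pH 7.4, room temperature). IC50 came from dose-response fitting of inhibition relative to pre-compound current.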

Sequence of Human TASK-1 channels (O14649 whole entry): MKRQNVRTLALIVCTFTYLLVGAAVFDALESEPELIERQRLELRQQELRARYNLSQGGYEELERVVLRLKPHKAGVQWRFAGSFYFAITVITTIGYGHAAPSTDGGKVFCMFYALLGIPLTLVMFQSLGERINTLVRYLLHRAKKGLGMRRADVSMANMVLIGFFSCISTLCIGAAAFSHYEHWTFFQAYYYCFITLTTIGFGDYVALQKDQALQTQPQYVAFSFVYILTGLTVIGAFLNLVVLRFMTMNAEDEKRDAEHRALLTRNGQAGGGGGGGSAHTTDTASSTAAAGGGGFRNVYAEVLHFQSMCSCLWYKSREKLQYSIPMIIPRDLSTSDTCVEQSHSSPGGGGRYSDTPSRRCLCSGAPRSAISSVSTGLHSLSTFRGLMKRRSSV

As for `CC[C@@H](NC(=O)c1cc(C(=O)NCc2ncccn2)n2c1COCC2)c1ccccc1` [16hj, 3,4-Dihydro-1H-pyrrolo[2,1-c][1,4]oxazine-6,8-dicarboxylic acid 8-[((R)-1-phenyl-propyl)-amide] 6-[(pyrimidin-2-ylmethyl)-amide]], the half-inhibitory concentration (IC50) (in general, the concentration needed to halve the response being measured) worked out at 530 nM.
The result for `CC[C@@H](NC(=O)c1cc(C(=O)N(CCO)CC2CC2)n2c1COCC2)c1ccccc1` [16hk, 3,4-Dihydro-1H-pyrrolo[2,1-c][1,4]oxazine-6,8-dicarboxylic acid 6-[cyclopropylmethyl-(2-hydroxy-ethyl)-amide] 8-[((R)-1-phenyl-propyl)-amide]] reads 1400 nM; that for `CC[C@@H](NC(=O)c1cc(C(=O)NC(C)c2cnccn2)n2c1COCC2)c1ccccc1` (stereo partly drawn) [16hl, 3,4-Dihydro-1H-pyrrolo[2,1-c][1,4]oxazine-6,8-dicarboxylic acid 8-[((R)-1-phenyl-propyl)-amide] 6-[(1-pyrazin-2-yl-ethyl)-amide]], 170 nM; that for `CC[C@@H](NC(=O)c1cc(C(=O)N[C@H](CC)c2cccnc2C(F)(F)F)n2c1COCC2)c1ccccc1` [16hm, 3,4-Dihydro-1H-pyrrolo[2,1-c][1,4]oxazine-6,8-dicarboxylic acid 8-[((R)-1-phenyl-propyl)-amide] 6-{[(R)-1-(2-trifluoromethyl-pyridin-3-yl)-propyl]-amide}], 660 nM.
The result for `CC[C@@H](NC(=O)c1cc(C(=O)N[C@H](CC)c2cncc(C(F)(F)F)c2)n2c1COCC2)c1ccccc1` [16hn, 3,4-Dihydro-1H-pyrrolo[2,1-c][1,4]oxazine-6,8-dicarboxylic acid 8-[((R)-1-phenyl-propyl)-amide] 6-{[(R)-1-(5-trifluoromethyl-pyridin-3-yl)-propyl]-amide}] reads 690 nM; that for `CCC(NC(=O)c1cc(C(=O)N[C@H](CC)c2ccccc2)c2n1CCOC2)c1ccc(C)nc1` (stereo partly drawn) [16ho, 3,4-Dihydro-1H-pyrrolo[2,1-c][1,4]oxazine-6,8-dicarboxylic acid 6-{[1-(6-methyl-pyridin-3-yl)-propyl]-amide} 8-[((R)-1-phenyl-propyl)-amide]], 730 nM.
Consider `CC[C@H](NC(=O)c1cc(C(=O)N[C@H](CC)c2ccccc2)c2n1CCOC2)c1ccc(OC)nc1` [16hp, 3,4-Dihydro-1H-pyrrolo[2,1-c][1,4]oxazine-6,8-dicarboxylic acid 6-{[(S)-1-(6-methoxy-pyridin-3-yl)-propyl]-amide} 8-[((R)-1-phenyl-propyl)-amide]], for which the IC50 amounted to 560 nM.
In the case of `CCOC(=O)[C@H](NC(=O)c1cc(C(=O)N[C@H](CC)c2ccccc2)c2n1CCOC2)c1ccccc1` [16hq, (R)-Phenyl-{[8-((R)-1-phenyl-propylcarbamoyl)-3,4-dihydro-1H-pyrrolo[2,1-c][1,4]oxazine-6-carbonyl]-amino}-acetic acid ethyl ester], the half-inhibitory concentration (IC50) came to 320 nM.
The same measure for `CC[C@@H](NC(=O)c1cc(C(=O)N[C@H](C)C(C)(C)C)n2c1COCC2)c1ccccc1` [16hr, 3,4-Dihydro-1H-pyrrolo[2,1-c][1,4]oxazine-6,8-dicarboxylic acid 8-[((R)-1-phenyl-propyl)-amide] 6-[((R)-1,2,2-trimethyl-propyl)-amide]]: 190 nM.
The result for `CC[C@H](NC(=O)c1cc(C(=O)N[C@H](CC)c2ccccc2)c2n1CCOC2)c1ccccc1` [16hs, 3,4-Dihydro-1H-pyrrolo[2,1-c][1,4]oxazine-6,8-dicarboxylic acid 6-[((S)-1-phenyl-propyl)-amide] 8-[((R)-1-phenyl-propyl)-amide]] reads 100 nM; that for `CC[C@@H](NC(=O)c1cc(C(=O)N[C@@H](C)c2ccc(F)cc2)n2c1COCC2)c1ccccc1` [16ht, 3,4-Dihydro-1H-pyrrolo[2,1-c][1,4]oxazine-6,8-dicarboxylic acid 6-{[(S)-1-(4-fluoro-phenyl)-ethyl]-amide} 8-[((R)-1-phenyl-propyl)-amide]], 70 nM; that for `CC[C@@H](NC(=O)c1cc(C(=O)N[C@H](CC)c2cnccn2)n2c1COCC2)c1ccccc1` [16hw, 3,4-Dihydro-1H-pyrrolo[2,1-c][1,4]oxazine-6,8-dicarboxylic acid 8-[((R)-1-phenyl-propyl)-amide] 6-[((R)-1-pyrazin-2-yl-propyl)-amide]], 360 nM.
For the molecule `CC[C@H](NC(=O)c1cc(C(=O)N[C@H](CC)c2ccccc2)c2n1CCOC2)c1cnccn1` [16hx, 3,4-Dihydro-1H-pyrrolo[2,1-c][1,4]oxazine-6,8-dicarboxylic acid 8-[((R)-1-phenyl-propyl)-amide] 6-[((S)-1-pyrazin-2-yl-propyl)-amide]], the IC50 was 57 nM.
Turning to `CC[C@@H](NC(=O)c1cc(C(=O)N[C@H](CC)c2cnc(OC)cn2)n2c1COCC2)c1ccccc1` [16hy, 3,4-Dihydro-1H-pyrrolo[2,1-c][1,4]oxazine-6,8-dicarboxylic acid 6-{[(R)-1-(5-methoxy-pyrazin-2-yl)-propyl]-amide} 8-[((R)-1-phenyl-propyl)-amide]], the IC50 was determined as 41 nM.
The same measure for `CC[C@H](NC(=O)c1cc(C(=O)N[C@H](CC)c2ccccc2)c2n1CCOC2)c1cnc(OC)cn1` [16hz, 3,4-Dihydro-1H-pyrrolo[2,1-c][1,4]oxazine-6,8-dicarboxylic acid 6-{[(S)-1-(5-methoxy-pyrazin-2-yl)-propyl]-amide} 8-[((R)-1-phenyl-propyl)-amide]]: 130 nM.
The result for `CC[C@@H](NC(=O)c1cc(C(=O)N[C@H](CC)c2ccccc2)n2c1COCC2)c1ccccc1` [16i, 3,4-Dihydro-1H-pyrrolo[2,1-c][1,4]oxazine-6,8-dicarboxylic acid bis-[((R)-1-phenyl-propyl)-amide]] reads 160 nM; that for `CC[C@@H](NC(=O)c1cc(C(=O)N[C@H](CC)c2ncccc2OC)n2c1COCC2)c1ccccc1` [16ia, 3,4-Dihydro-1H-pyrrolo[2,1-c][1,4]oxazine-6,8-dicarboxylic acid 6-{[(R)-1-(3-methoxy-pyridin-2-yl)-propyl]-amide} 8-[((R)-1-phenyl-propyl)-amide]], 120 nM.
Consider `CC[C@@H](NC(=O)c1cc(C(=O)N[C@H](CC)c2ccc(C#N)nc2)n2c1COCC2)c1ccccc1` [16ib, 3,4-Dihydro-1H-pyrrolo[2,1-c][1,4]oxazine-6,8-dicarboxylic acid 6-{[(R)-1-(6-cyano-pyridin-3-yl)-propyl]-amide} 8-[((R)-1-phenyl-propyl)-amide]], for which the IC50 is 1000 nM.
As for `CC[C@@H](NC(=O)c1cc(C(=O)N[C@H](CC)c2cccc(OC)n2)n2c1COCC2)c1ccccc1` [16ic, 3,4-dihydro-1H-pyrrolo[2,1-c][1,4]oxazine-6,8-dicarboxylic acid 6-{[(R)-1-(6-methoxy-pyridin-2-yl)-propyl]-amide} 8-[((R)-1-phenyl-propyl)-amide]], the 50% inhibitory concentration (IC50) worked out at 40 nM.
The same measure for `CC[C@@H](NC(=O)c1cc(C(=O)N[C@H](CC)c2ccc(C(F)(F)F)nc2)n2c1COCC2)c1ccccc1` [16id, 3,4-Dihydro-1H-pyrrolo[2,1-c][1,4]oxazine-6,8-dicarboxylic acid 8-[((R)-1-phenyl-propyl)-amide] 6-{[(R)-1-(6-trifluoromethyl-pyridin-3-yl)-propyl]-amide}]: 530 nM.
